Like-named read-outs stand apart in the source and are kept apart here.
Key:
[1] = Maximum tolerated dose (MTD) in C57BL/6 mice; conditions: C57BL/6, mouse, in vivo, ip
Experimental: The MTD was determined by single dose or b.i.d. × 3 intraperitoneal administration through a classical dose escalation design in C57BL/6 mice and defined as a dose level that was tolerated by mice (n = 2–3 mice/group) with a body weight loss of <10% and no death or detectable sickness. […] All animal experiments were approved by the Animal Ethics Committee of the University of Auckland.

[2] = Solubility in SPR running buffer; type: physicochemical; conditions: HEPES buffered saline running buffer with 5% DMSO; sodium salts, HEPES running buffer containing 5% DMSO
Experimental: Binding experiments with surface immobilized wild-type perforin monomers on a S-series CM5 sensor chip (GE Healthcare Life Sciences) were carried out using a Biacore T200 SPR machine (GE Healthcare Life Sciences). […] The initial and running buffers were made from a 10× stock solution of HEPES buffered saline (HBS). 10× HBS (50 mL) was diluted to 500 mL with water and filtered through a 0.22 μm filter (initial buffer). This initial buffer (380 mL) was added to DMSO (20 mL) to prepare the 5% DMSO running buffer. Stock solutions (2.5 mM) of compound were prepared in 100% DMSO. […] A solvent correction was run before and after the injections to account for differences in DMSO concentrations between buffer and analyte solutions.

[3] = Aqueous solubility of parent compound and sodium salt
[4] = Plasma pharmacokinetics in male CD-1 mice; type: in vivo, mouse; conditions: 5 mg/kg iv; for AUC0–∞ / Cmax / T1/2: plasma
Experimental: Blood was collected by cardiac puncture at 5 and 30 min and 1, 2, 4, and 6 h postdose in ice-cold K2-EDTA tubes. Plasma samples were separated by centrifuging at 4000g for 8 min and stored at −80 °C until analysis. Frozen plasma was thawed on wet ice on the day of analysis. […] A Zorbax SB-C18, 50 mm × 2.1 mm 5 μm column was used at a 0.5 mL/min flow rate, and elution was with a gradient of organic phase (A), acetonitrile in water (80:20 v/v) containing 0.01% formic acid and aqueous phase (B), water containing 0.01% formic acid. LC–MS/MS analysis was carried out using multiple reaction monitoring. […] Plasma samples from 5 min, 30 min, and 1 h were diluted with control mouse plasma (1:20 for 5 min, 1:10 for 30 min and 1 h samples) to fit within this range. The resultant concentration vs time data were fitted (using Phoenix WinNonlin 6.2; Pharsight Corporation, St. Louis, MO) to calculate pharmacokinetic parameters including half-life (T1/2), maximum concentration (Cmax), area under the curve (AUC0–∞), volume of distribution (V), and clearance (Cl).

[5] = biological target: T1, perforin delivered by primary human natural killer cells to HeLa cells (Homo sapiens, UniProt P14222); assay: Time-lapse microscopy of the cytotoxic immunological synapse (primary NK cells and HeLa targets); type: cell-based; conditions: 20 μM, primary human NK cells, HeLa targets
T1 construct: degranulation and the release of perforin into the synaptic cleft; endogenous in cells; host or cells: primary human NK cells from peripheral blood of four donors (HeLa target cells)
T1 sequence (P14222 22-555): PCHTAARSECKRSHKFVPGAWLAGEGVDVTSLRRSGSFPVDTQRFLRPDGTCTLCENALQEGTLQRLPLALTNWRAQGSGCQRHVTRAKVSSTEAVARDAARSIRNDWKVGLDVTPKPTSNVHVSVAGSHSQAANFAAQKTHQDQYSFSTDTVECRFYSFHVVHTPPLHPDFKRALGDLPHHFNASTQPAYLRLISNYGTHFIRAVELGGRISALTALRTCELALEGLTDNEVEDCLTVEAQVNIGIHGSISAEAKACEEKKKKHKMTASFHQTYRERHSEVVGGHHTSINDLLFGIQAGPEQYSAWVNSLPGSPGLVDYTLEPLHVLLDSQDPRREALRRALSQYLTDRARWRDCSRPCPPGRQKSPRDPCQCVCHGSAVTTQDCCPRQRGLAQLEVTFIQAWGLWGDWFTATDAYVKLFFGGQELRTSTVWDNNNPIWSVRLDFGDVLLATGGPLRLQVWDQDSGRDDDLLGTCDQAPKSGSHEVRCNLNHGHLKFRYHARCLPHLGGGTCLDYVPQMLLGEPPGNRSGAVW
Experimental: Time-lapse microscopy and image analysis were performed as described previously.[42] In brief, primary human natural killer cells were isolated from the peripheral blood of four unrelated donors using negative selection, as described in the above reference. […] All experiments were performed at 37 °C/5% CO2.

[6] = tested on: KHYG-1 NK cells; assay: Toxicity to KHYG-1 NK cells (Trypan blue exclusion); type: cell-based, human; conditions: 5 μM, viability after 24 h
Experimental: The toxicity assay was carried out in exactly the same manner as the killing assay above, but instead of adding the labeled K562 target cells, 100 μL of RPMI 0.1% BSA was added. Cells were incubated for 4 h at 37 °C and then washed ×3 in RPMI + 0.1% BSA. […] Trypan blue was added to each well. Viable (clear) cells and total (clear + blue) cells were counted, and the percentage of viable cells was calculated compared to DMSO treated cell control (% viability).

[7] = intraperitoneal, twice daily over 3 days, read-out: MTD, multiple dosing
[8] = single intraperitoneal dose, mice, read-out: MTD, single dose

| SMILES | MTD at 96 h [1, 7] [mg/kg] | MTD at 96 h [1, 8] [mg/kg] | solubility [2] [µM] | solubility ([3]; aqueous medium (not further specified)) [µg/mL] | Cl (clearance) [4] [mL h^–1 kg^–1] | V (volume of distribution) [4] [L/kg] | AUC0–∞ [4] [ng·h/mL] | Cmax [4] [ng/mL] | T1/2 [4] [h] | synapses in which formation of the perforin pore was blocked [5] [%] | killer cells that delivered functional perforin to the target ([5]; DMSO control: every cell) [%] | KHYG-1 viability [6] | solubility [3] [µg/mL] |
| --- | --- | --- | --- | --- | --- | --- | --- | --- | --- | --- | --- | --- | --- |
| CC1c2cc(-c3ccc(/C=C4/NC(=S)NC4=O)s3)ccc2C(=O)N1C (stereo not drawn) [compound 135, (E,Z)-2,3-Dimethyl-5-(5-((5-oxo-2-thioxoimidazolidin-4-ylidene)methyl)thiophen-2-yl)isoindolin-1-one] | 60 | 80 | ≤ 2.5 | 1.32 | 4346 | 1.478 | 1151 | 4488 | 1.15 | – | – | – | – |
| O=C1NC(=S)N/C1=C/c1ccc(-c2ccc3c(c2)CCNC3=O)s1 [compound 167] | 40 | 60 | ≤ 2.5 | – | 5237 | 2.75 | 955 | 4513 | 1.30 | 40 | 60 | lack of NK toxicity | 0.53 |
